Columns and labels:
[1] = LNP size and polydispersity index by dynamic light scattering (Zetasizer Nano ZS); type: physicochemical; conditions: LNP with mRNA payload formulated with the lipid; active lipid/Cholesterol/DOPC/DMG-PEG 16.8/4.0/2.0/1.0; Lipids:mRNA 25:1; PBS pH 7.4, 25° C.
Procedure: (§1) RNA working solutions (0.134 mg/ml) were prepared in 25 mM sodium acetate buffer using DNase/RNase-free distilled water. Lipid stock solutions (10 mg/mL) were freshly prepared with active lipids or helper lipids (e.g., cholesterol, DOPC or DSPC, or ALC-0159) in ethanol. Reagents were mixed by vortexing and sonicating until the lipids were completely dissolved. A lipid mixture was first prepared by combining the active lipids (e.g., ionizable lipids of the present disclosure) and helper lipids into one vial and mixing thoroughly. Lipid nanoparticles were then formed by mixing the RNA working solution (0.134 mg/ml) and the lipid mixture at 3:1 volume ratio, either manually (for smaller scale) or by Precision Igniter microfluidic device. The formulation solution was transferred into a 300 kDa MWCO Float-A-Lyzer G2 Dialysis Device and dialyzed against at least 1000-folds volume of 50 mM Tris buffer overnight at 4° C. The LNP solution was sterilized with a 0.22 μm filter.
(§2) For LNP characterization, size and polydispersity index (PDI) were determined by dynamic light scattering using a Zetasizer Nano ZS. 10 μL of LNP suspension was transferred to a low-volume cuvette containing 900 μL of Ca^2+ and Mg^2+ free PBS at pH 7.4. Refractive index was set to […] and temperature was set to 25° C. Encapsulation efficiency (EE %) was measured using a fluorescence plate-based assay employing the Ribogreen reagent (Invitrogen) as per PNI Ribogreen assay protocol 16. This assay measures the quantity of mRNA in samples with intact LNPs to determine the quantity of unencapsulated RNA as well as in LNP samples disrupted by triton X-100 to measure the total RNA. EE % is calculated as the difference between the total RNA and the unencapsulated RNA divided by the total RNA.

[2] = Encapsulation efficiency and mRNA quantity by Ribogreen fluorescence plate assay; type: physicochemical; conditions: LNP with mRNA payload formulated with the lipid, 16.8/4.0/2.0/1.0, Lipids:mRNA 25:1; for EE %: (total RNA - unencapsulated RNA)/total RNA
Procedure: as §1, §2

female adult BALB/c mice = test: IV injection of Luc mRNA/LNP, whole body bioluminescence by IVIS imaging; type: in vivo; conditions: single i.v., 5 μg mRNA, 6 hours post injection; for delivery of the luciferase mRNA to the liver in vivo (luciferase intensity, IVIS): LNPs of L88, L854, L855 compared, FIGS. 4A-5B
Procedure: All animal experiments were conducted in accordance with the approved animal protocols. LNPs were formulated with lipids and mRNA encoding Luciferase (Luc) based on TABLE 3. LNPs comprising 5 μg mRNA and 50 μg active lipids (e.g., ionizable lipids) were injected intravenously (i.v.) to female adult BALB/c mice (6-8 wk. old). Six hours post injection, 100 μL of luciferin K salt (15 mg/mL in PBS) was administered to the mice through intraperitoneal injections. The mice were then imaged using the In Vivo Imaging System (IVIS) and the total flux of areas of interest was quantified. FIGS. 2A-2G illustrate representative IVIS data using the LNPs formulated with active lipids from TABLE 4. […] FIGS. 4A-7B show further analysis of the IVIS results. In FIGS. 4A-4B and FIGS. 5A-5B, the lipid nanoparticles were formulated with luciferase mRNA and lipids L88, L854, and L855, respectively. The experiment was conducted in duplicates. […] Existing lipid formulations in the industry were used as controls in the experiment. For example, lipids provided herein were compared to ALC-0315 (Pfizer) and SM-102 (Moderna).

Structure (SMILES) | PDI [1] | Size (nm) [1] | [mRNA] Ug/ml [2] | EE % [2] | delivery of the luciferase mRNA to the liver in vivo (luciferase intensity, IVIS) (female adult BALB/c mice) | luciferase mRNA delivery to the liver compared to ALC-0315 (female adult BALB/c mice; FIGS. 6A-6B) | luciferase mRNA delivery compared to SM-102 (female adult BALB/c mice; FIGS. 7A-7B)
CCCCCCC(CCCC)COC(=O)CCOC(=O)CCN(CCCN(C)CCCN(CCC(=O)OCCC(=O)OCC(CCCC)CCCCCC)CCC(=O)OCCC(=O)OCC(CCCC)CCCCCC)CCC(=O)OCCC(=O)OCC(CCCC)CCCCCC (stereo not shown) [Lipid L0854] | 0.098 | 120.3 nm | 77.7 Ug/ml | 94.6% | more efficient delivery of the luciferase mRNA to the liver | more luciferase mRNA delivery to the liver than ALC-0315 | 
CCC1CC1CCCCSSCCOC(=O)CCN(CCCN(C)CCCN(CCC(=O)OCCSSCCCCC1CC1CC)CCC(=O)OCCSSCCCCC1CC1CC)CCC(=O)OCCSSCCCCC1CC1CC (stereo not shown) [Lipid L0586] | 0.079 | 151.8 nm | 78 Ug/ml | 21.2% |  |  | 
CCCCCCC(CCCC)COC(=O)CCOC(=O)CCN(CCC(=O)OCCC(=O)OCC(CCCC)CCCCCC)CCN(C)CCN(CCC(=O)OCCC(=O)OCC(CCCC)CCCCCC)CCC(=O)OCCC(=O)OCC(CCCC)CCCCCC (stereo not shown) [Lipid L0855] | 0.125 | 99.86 nm | 78.9 Ug/ml | 95.1% | more efficient delivery of the luciferase mRNA to the liver |  | more luciferase mRNA delivery than SM-102

— patent US20260285801A1, “LIPID NANOPARTICLE FOR TARGETED DELIVERY OF THERAPEUTIC PAYLOADS” (Trustees of Tufts College, priority 2023, published 2026)
